Where two headings read alike, the source gives them in different places.
Assays:
[1] = system: HtrA1 expression in HCT116 and SW480 cells; assay: HtrA1 expression by quantitative real-time PCR after 5-Aza-dC and TSA treatment; type: cell-based, human; conditions: HCT116 and SW480 cancer cells treated with 5-Aza-dC (5 μM and 10 μM, 56 h) then 400 nM TSA (16 h) vs solvent only
Experimental: Expression of HtrA1 in HCT116 and SW480 cells treated with 5-Aza-dC and TSA. Cells were treated with 5-Aza-dC and TSA or solvent only. RNA was extracted from the cells followed by reverse transcription. cDNA was analyzed by quantitative real-time PCR.
Cells were seeded at a density of 5×10^5/60 mm dish and allowed to attach over 24 h in a 37° C. incubator in a humified atmosphere with 5% CO2. 5-aza-2′-deoxycytidine was solved in 50% acetic acid. It was added to the medium for a final concentration ranging from 0 to 10 μM for 72 h. At every 24 h interval, fresh medium containing the drug was added. Cells were incubated in a 37° C. incubator in a humified atmosphere with 5% CO2. […]
At the end of the treatment cells were washed twice with PBS and RNA was isolated for analysis of HtrA1 expression using quantitative Real-Time-PCR. […]
Quantitative Real-Time PCR was performed on the RotorGene3000 (Corbett Life Science) using Absolute QPCR SYBR Green Mix (ABgene) according to the manufacturer's instructions. 1 μl of cDNA, 12.5 μl Absolute QPCR SYBR Green Mix and 400 nM of each primer were used for the quantitative real-time PCR reaction. […]
The relative gene expression level of HtrA1 was calculated relative to the GAPDH and PPIA genes according to the method of Pfaffl (Pfaffl Nucleic Acids Res 29:e45 (2001)).

cells = conditions: cited from earlier work
HtrA1 [2] = target: HtrA1 (Homo sapiens, UniProt Q92743); assay: HtrA1 enzymatic activity with p-NA substrate; type: biochemical; conditions: 25 μM Cytochalasin E, preincubated 10 minutes at 37° C., 0.5 mM p-NA substrate, measured 70 minutes at 405 nm
Experimental: HtrA1 activity was determined with a p-NA substrate. HtrA1 was incubated with either DMSO alone or 25 μM Cytochalasin E that was dissolved in DMSO. Reaction was measured spectrophometrically for 70 minutes at 37° C. at 405 nm.
Enzymatic activity of HtrA1 was assayed using acyl p-nitroanilide (p-NA) substrate FANQHLCGSHLVEA-p-NA. HtrA1 (5 μg) was preincubated with Cytochalasin E (25 μM) for 10 minutes at 37° C. Reaction was initiated by adding p-NA substrate at a final concentration of 0.5 mM. The volume of each reaction was 100 μl in 50 mM Tris-HCl pH 8. Reaction was measured continuously in a spectrophotometer for 70 minutes at 37° C. at 405 nm.

p21 = p21 RNA level by quantitative RT-PCR after shRNA against HtrA1; type: cell-based, human
Experimental: (§1) Analysis of HtrA1 and p21 expression in U373 (astrocytoma) and SW480 (colon cancer) cells transduced with an shRNA against HtrA1 or an empty vector control. The HtrA1- and p21-RNA level were analysed by quantitative RT-PCR.
(§2) The cell line SW480 derived from human colon adenocarcinoma (DMSZ no. ACC 313) and the cell line U373 MG derived from human glioblastoma astrocytoma (ECACC no. 89081403) were cultured in DMEM (Gibco, Invitrogen) supplemented with 10% fetal bovine serum (FBS) and 1% penicillin-streptomycin at 5% CO2 and 37° C. The media for the stable transduced SW480 cell lines additionally contain 1.8 μg/ml puromycin.
(§3) 4×10^5 SW480 cells/well were seeded into a six-well plate. After two days the six-well plate was 80% confluent and RNA was extracted by using total RNA isolation kit (Macherey-Nagel). RNA was purified with NucleoSpin RNAII columns (Macherey-Nagel) according to the procedure by the manufacturer. […]
(§4) Quantitative RT-PCR was done with Platinum SYBR Green qPCR-superMix-UDG-kit (Invitrogen) with Rotor-Gene RG3000 from Corbett Research. […]
(§5) The total reaction volume was of 25 μl, containing 12.5 μl SYBR Green PCR Master Mix (Invitrogen), 1 μl Primer (4.5 μM each) and 4 μl cDNA (20 ng). […] Melting curve was measured every 5 seconds from 50° C. to 99° C. Gene expression ratios for each sample were calculated as described (Pfaffl, Nucleic Acids Res, 29:e45 (2001)). […]

HtrA1 [3] = assay: HtrA1 RNA level by quantitative RT-PCR after shRNA transduction; type: cell-based, human; conditions: U373 and SW480 cells expressing the shRNA vs empty vector control
Experimental: as §1, §2, §3, §4, §5

SW480 cells = assay: Polyploidy of SW480 cells depleted for HtrA1 (FACS, karyotyping); type: cell-based, human
Experimental: A) Polyploidy of SW480 cells depleted for HtrA1/FACS analysis • SW480 (colon cancer) cells were transduced with a shRNA against HtrA1. After some passages cells were analyzed by propidium iodide staining for their DNA content. Gate M1 corresponds to a DNA content of 2n, gate M3 corresponds to a DNA content of 4n and gate M5 corresponds to a DNA content of 8n. […] B) Polyploidy of SW480 cells depleted for HtrA 1/karyo-typing • Metaphase chromosomes of SW480 cell lines transduced with plko empty vector and plko vector containing a shRNA against HtrA1.
Cells were harvested by treatment with trypsin/EDTA. Cells were centrifuged for 5 minutes at 1700 g and 4° C. The pellet was resuspended and washed in 1 ml PBS. Cells were centrifuged again for 5 minutes at 1700 g and 4° C. The supernatant was discarded and the pellet was resuspended in 100 μl PBS. […] After addition of 5 μl RNase A (10 mg/ml) and 15 μl propidium iodide (2 mg/ml, Sigma #P4170), cells were incubated in the dark at 4° C. for 60 minutes and then analysed at the flow cytometer (FACScalibur, BD biosciences) […]
Cell suspensions were dropped onto pre-cleaned, wet, ice-cold glass microscope slides to obtain good spreading of the chromosome sets. […] Intact metaphase cells (those that were not disrupted during the preparation step) were counted for their chromosome numbers at 1000 fold magnification (oil-immersion).

Sequence of HtrA1 (Homo sapiens, UniProt Q92743) (Q92743 23-480): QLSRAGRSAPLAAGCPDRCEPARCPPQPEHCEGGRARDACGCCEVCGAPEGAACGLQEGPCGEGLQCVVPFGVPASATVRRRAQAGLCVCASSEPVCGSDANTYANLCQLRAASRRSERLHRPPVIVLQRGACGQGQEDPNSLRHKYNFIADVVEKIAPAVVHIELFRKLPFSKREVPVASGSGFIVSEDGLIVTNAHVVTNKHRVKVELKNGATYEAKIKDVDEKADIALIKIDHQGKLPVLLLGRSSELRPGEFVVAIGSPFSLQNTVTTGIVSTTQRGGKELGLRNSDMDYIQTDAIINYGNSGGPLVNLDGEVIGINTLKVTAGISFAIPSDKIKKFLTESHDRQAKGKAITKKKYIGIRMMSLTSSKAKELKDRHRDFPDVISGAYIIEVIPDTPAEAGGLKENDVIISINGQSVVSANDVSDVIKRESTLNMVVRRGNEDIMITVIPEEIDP

CC(/C=C/C(=O)NO)=C\[C@@H](C)C(=O)c1ccc(N(C)C)cc1 [TSA, Trichostatin A]
HtrA1 expression [1]: large increase in HtrA1 expression

C=C1[C@@H](C)[C@H]2[C@H](Cc3ccccc3)NC(=O)[C@]23OC(=O)/C=C/[C@H](O)CCC[C@@H](C)C/C=C/[C@H]3[C@@H]1O [Cytochalasin B]
p21 induction and cell cycle arrest (cells; high amounts): induce p21 and cell cycle arrest
cell cycle arrest (cells; large amounts (10 μg/ml)): cell cycle arrest via p21
polyploidy (cells; large amounts (10 μg/ml)): cause polyploidy
cell cycle arrest (cells; low doses (0.5 μg/ml)): no cell cycle arrest
polyploidy (cells; low doses (0.5 μg/ml)): also cause polyploidy
polyploidy (cells; no concentration stated, by inhibition of actin polymerisation): causes polyploidy

C[C@H]1C/C=C/[C@H]2[C@@H]3O[C@]3(C)[C@@H](C)[C@H]3[C@H](Cc4ccccc4)NC(=O)[C@]32OC(=O)O/C=C/[C@@](C)(O)C1=O [Cytochalasin E]
HtrA1 activity inhibition (HtrA1 [2]): potent HtrA1 inhibitor
HtrA1 activity inhibition (HtrA1 [2]; listed as cytochalasin E): efficiently inhibits HtrA1

Nc1ncn([C@H]2C[C@H](O)[C@@H](CO)O2)c(=O)n1 [5-Aza-dC, 5-Aza-2′-deoxycytidine]
HtrA1 expression [1]: large increase in HtrA1 expression

B1: shRNA against HtrA1: hairpin sequence (Seq. ID. No 25/26) in lentiviral plko vector, knocks down HtrA1 (nucleic acid)
sense: CCGGGATCTCAGGAGCGTATATATTCTCGAGAATATATACGCTCCTGAGATCTTTTTG
antisense: CTAGAGTCCTCGCATATATAAGAGCTCTTATATATGCGAGGACTCTAGAAAAACTTAA
p21 mRNA levels downregulated by a factor of (p21; HtrA1 expressed at much lower levels by shRNA): 10
P21 level down-regulated (p21; both cell lines (U373, SW480) expressing the shRNA against HtrA1): 90%
HtrA1 level downregulated (HtrA1 [3]): more than 90%
DNA content by propidium iodide staining (FACS) (SW480 cells; SW480 cells vs empty vector): shift of the main peak from 2n to 4n and a shift of the smaller peak from 4n to 8n
polyploidy by karyotyping of metaphase chromosomes (SW480 cells; SW480 cells vs empty vector control): higher grade of polyploidy

From patent US20110111407A1, “METHOD FOR ANALYSING THE EPIGENETIC STATUS OF THE HTRA 1 GENE IN A BIOLOGICAL SAMPLE” (priority 2008, published 2011)
